Laboratory results: patent publication US20230339970A1, “CASEIN KINASE 1 DELTA MODULATORS” (priority 2020, published 2023)

What was measured:
[1] = target: T1, human CSNK1D (Homo sapiens, UniProt P48730); assay: Whole Cell nBRET CSNK1D Binding Assay; conditions: living CHO cells stably expressing human CSNK1D tagged with nanoluciferase; NanoBret tracer 130 nM; 2 hours at 37 C
T1 construct: expressed in transfected cells

[2] = target: T2, human recombinant GST cleaved CSNK1D (Homo sapiens, UniProt P48730); assay: Purified Enzyme Assay (ADP-Glo CSNK1D Kinase Assay); type: biochemical; conditions: 2 nM CSNK1D; peptide substrate 150 μM; ATP 20 μM; 45 minutes at room temperature
T2 construct: GST (cleaved yes); purchased University of Dundee clone DU 19064
T2 sequence (P48730 whole entry): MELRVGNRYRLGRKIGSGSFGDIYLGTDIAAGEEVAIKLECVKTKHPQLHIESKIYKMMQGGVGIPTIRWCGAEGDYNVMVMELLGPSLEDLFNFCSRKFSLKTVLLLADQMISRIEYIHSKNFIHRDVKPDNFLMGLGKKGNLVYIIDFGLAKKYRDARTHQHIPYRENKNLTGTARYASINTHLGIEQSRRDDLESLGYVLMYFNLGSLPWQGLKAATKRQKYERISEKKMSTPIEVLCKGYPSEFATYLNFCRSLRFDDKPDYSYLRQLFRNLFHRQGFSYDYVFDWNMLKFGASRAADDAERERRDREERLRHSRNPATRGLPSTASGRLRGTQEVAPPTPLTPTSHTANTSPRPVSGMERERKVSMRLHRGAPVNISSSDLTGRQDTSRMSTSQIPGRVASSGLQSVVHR
Method in brief: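 Percent activity derived from ADP-Glo quantification of ADP produced. Reactions: compound dose-response with human recombinant GST-cleaved CSNK1D, ATP and substrate peptide PLSRTL-pS-VASLPGL, incubated 45 min at room temperature.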

T1 sequence (P48730 whole entry): as above

| SMILES | IC50 [1] | IC50 [2] |
| --- | --- | --- |
| Cc1cc(-c2c(-c3ccc(F)cn3)nn3c2CO[C@H](C)C3)c2cn[nH]c2n1 (single isomer, unassigned) [Example 87, (*R)-2-(5-Fluoro-2-pyridyl)-6-methyl-3-(6-methyl-1H-pyrazolo[3,4-b]pyridin-4-yl)-6,7-dihydro-4H-pyrazolo[5,1-c][1,4]oxazine] | 162 nM | 13 nM |
| CC1(C)Cn2nc(-c3ccc(F)cn3)c(-c3ccn4nccc4c3)c2O1 [Example 367, 6-(5-Fluoro-2-pyridyl)-2,2-dimethyl-7-pyrazolo[1,5-a]pyridin-5-yl-3H-pyrazolo[5,1-b]oxazole] | 566 nM | 41 nM |
| CC1(C)COc2c(-c3ccnc4cc[nH]c34)c(-c3ccc(F)cc3)nn2C1 [Example 448, 2-(4-Fluorophenyl)-6,6-dimethyl-3-(1H-pyrrolo[3,2-b]pyridin-7-yl)-5,7-dihydropyrazolo[5,1-b][1,3]oxazine] | 196 nM | 28 nM |
| FCC1Cn2nc(-c3ccc(F)cc3)c(-c3ccnc4[nH]ncc34)c2CO1 (single isomer, unassigned) [Example 104, (*S)-6-(Fluoromethyl)-2-(4-fluorophenyl)-3-(1H-pyrazolo[3,4-b]pyridin-4-yl)-6,7-dihydro-4H-pyrazolo[5,1-c][1,4]oxazine] | 49 nM | 4 nM |
| Cc1cc(-c2c(-c3ccc(F)cn3)nn3c2C[C@@]2(C3)CC2(F)F)c2c(Cl)n[nH]c2n1 (single isomer, unassigned) [Example 262, (*S)-3′-(3-Chloro-6-methyl-1H-pyrazolo[3,4-b]pyridin-4-yl)-2,2-difluoro-2′-(5-fluoropyridin-2-yl)-4′H,6′H-spiro[cyclopropane-1,5′-pyrrolo[1,2-b]pyrazole]] | 15 nM | 5 nM |
| C[C@@H]1OCc2c(-c3ccnc4[nH]ncc34)c(-c3ccc(F)cc3)nn2[C@H]1C (single isomer, unassigned) [Example 115, (6*S,7*S)-2-(4-Fluorophenyl)-6,7-dimethyl-3-(1H-pyrazolo[3,4-b]pyridin-4-yl)-6,7-dihydro-4H-pyrazolo[5,1-c][1,4]oxazine] | 74 nM | 6 nM |
| Cc1n[nH]c2ncc(F)c(-c3c(-c4ccc(F)cn4)nn4c3CC[C@@H]3C[C@@H]34)c12 (single isomer, unassigned) [Example 345, (5a*R,6a*S)-3-(5-Fluoro-3-methyl-1H-pyrazolo[3,4-b]pyridin-4-yl)-2-(5-fluoropyridin-2-yl)-5,5a,6,6a-tetrahydro-4H-cyclopropa[e]pyrazolo[1,5-a]pyridine] | 368 nM | 34 nM |
| Cc1cc(-c2c(-c3ccc(F)cc3)nn3c2OCCCC3)c2cn[nH]c2n1 [Example 217, 2-(4-Fluorophenyl)-3-(6-methyl-1H-pyrazolo[3,4-b]pyridin-4-yl)-5,6,7,8-tetrahydropyrazolo[5,1-b][1,3]oxazepane] | 25 nM | 2 nM |

More lines, now with the values ahead:

| IC50 [1] | IC50 [2] | SMILES |
| --- | --- | --- |
| 31 nM | 4 nM | COC[C@]1(F)CCc2c(-c3cc(C)nc4[nH]ncc34)c(-c3ccc(F)cn3)nn2C1 (single isomer, unassigned) [Example 53, (*S)-4-(6-Fluoro-2-(5-fluoropyridin-2-yl)-6-(methoxymethyl)-4,5,6,7-tetrahydropyrazolo[1,5-a]pyridin-3-yl)-6-methyl-1H-pyrazolo[3,4-b]pyridine] |
| 22 nM | 1 nM | Fc1ccc(-c2nn3c(c2-c2ccnc4[nH]ncc24)CCC3)cc1 [Example 4, 4-(2-(4-Fluorophenyl)-5,6-dihydro-4H-pyrrolo[1,2-b]pyrazol-3-yl)-1H-pyrazolo[3,4-b]pyridine] |
| 1910 nM | 75 nM | COC[C@]1(F)CCc2c(-c3ccnc4[nH]ncc34)c(-c3ccc(F)cn3)nn2C1 (single isomer, unassigned) [Example 300, (*S)-4-[6-Fluoro-2-(5-fluoro-2-pyridyl)-6-(methoxymethyl)-5,7-dihydro-4H-pyrazolo[1,5-a]pyridin-3-yl]-1H-pyrazolo[3,4-b]pyridine] |
| 55 nM | 6 nM | Fc1ccc(-c2nn3c(c2-c2ccnc4[nH]ncc24)[C@@H]2CC[C@H]3C2)nc1 (single isomer, unassigned) [Example 62, (4*R,7*S)-2-(5-Fluoropyridin-2-yl)-3-(1H-pyrazolo[3,4-b]pyridin-4-yl)-4,5,6,7-tetrahydro-4,7-methanopyrazolo[1,5-a]pyridine] |
| 165 nM | 9 nM | Cc1nc(-c2nn3c(c2-c2ccnc4[nH]ncc24)COC(C)(C)C3)ccc1F [Example 164, 2-(5-Fluoro-6-methylpyridin-2-yl)-6,6-dimethyl-3-(1H-pyrazolo[3,4-b]pyridin-4-yl)-6,7-dihydro-4H-pyrazolo[5,1-c][1,4]oxazine] |
| 85 nM | 4 nM | Fc1ccc(-c2nn3c(c2-c2ccnc4[nH]ncc24)CC2(C3)CC2(F)F)nc1 (single isomer, unassigned) [Example 254, (*S)-1′1l′-Difluoro-2-(5-fluoro-2-pyridyl)-3-(1H-pyrazolo[3,4-b]pyridin-4-yl)spiro[4,6-dihydropyrrolo[1,2-b]pyrazole-5,2′-cyclopropane]] |
| 54 nM | 6 nM | Fc1ccc(-c2nn3c(c2-c2ccnc4[nH]ncc24)CCC(F)(COC(F)(F)F)C3)nc1 (single isomer, unassigned) [Example 316, (*S)-4-[6-Fluoro-2-(5-fluoro-2-pyridyl)-6-(rifluoromethoxymethyl)-5,7-dihydro-4H-pyrazolo[1,5-a]pyridin-3-yl]-1H-pyrazolo[3,4-b]pyridine] |
| 3710 nM | 176 nM | Cn1ncc2c(-c3c(-c4ccc(F)cn4)nn4c3COC(C)(C)C4)ccnc21 [Example 153, 2-(5-Fluoro-2-pyridyl)-6,6-dimethyl-3-(1-methylpyrazolo[3,4-b]pyridin-4-yl)-4,7-dihydropyrazolo[5,1-c][1,4]oxazine] |
| 27 nM | 9 nM | Fc1ccc(-c2nn3c(c2-c2ccnc4[nH]ncc24)CC[C@H]2[C@@H]3C2(F)F)cc1 (stereo in doubt) [Example 355, (5a*S,6a*R)-6,6-Difluoro-2-(4-fluorophenyl)-3-(1H-pyrazolo[3,4-b]pyridin-4-yl)-5,5a,6,6a-tetrahydro-4H-cyclopropa[e]pyrazolo[1,5-a]pyridine] |
| 94 nM | 5 nM | CC1(C)Cn2nc(-c3ccc(F)cn3)c(-c3c(F)cnc4[nH]ncc34)c2CO1 [Example 389, 3-(5-Fluoro-1H-pyrazolo[3,4-b]pyridin-4-yl)-2-(5-fluoropyridin-2-yl)-6,6-dimethyl-6,7-dihydro-4H-pyrazolo[5,1-c][1,4]oxazine] |
| 1920 nM | 59 nM | Cc1nc(-c2nn3c(c2-c2ccnc4[nH]ncc24)COC(C)(C)C3)ccc1Cl [Example 163, 2-(5-Chloro-6-methylpyridin-2-yl)-6,6-dimethyl-3-(1H-pyrazolo[3,4-b]pyridin-4-yl)-6,7-dihydro-4H-pyrazolo[5,1-c][1,4]oxazine] |
| 697 nM | 55 nM | Fc1ccc(-c2nn3c(c2-c2ccnc4[nH]ncc24)CO[C@H](C(F)(F)F)C3)cc1 [Example 100, (S)-2-(4-Fluorophenyl)-3-(1H-pyrazolo[3,4-b]pyridin-4-yl)-6-(trifluoromethyl)-6,7-dihydro-4H-pyrazolo[5,1-c][1,4]oxazine] |
